In ChEMBL document CHEMBL3886171, “Compounds and compositions for the inhibition of NAMPT” (2015):

Molecular target: Nicotinamide phosphoribosyltransferase (Homo sapiens, UniProt P43490)
Test: Biochemical Inhibition Assay: The NAMPT enzymatic reactions were carried out in Buffer A (50 mM Hepes pH 7.5, 50 mM NaCl, 5 mM MgCl2, and 1 mM THP) in 96-well V-bottom plates. The compound titrations were performed in a separate dilution plate by serially diluting the compounds in DMSO to make a 100x stock. Buffer A (89 uL) containing 33 nM of NAMPT protein was added to 1 uL of 100x compound …
Description: Biochemical Inhibition Assay: The NAMPT enzymatic reactions were carried out in Buffer A (50 mM Hepes pH 7.5, 50 mM NaCl, 5 mM MgCl2, and 1 mM THP) in 96-well V-bottom plates. The compound titrations were performed in a separate dilution plate by serially diluting the compounds in DMSO to make a 100x stock. […] The compound and enzyme mix was incubated for 15 minutes at room temperature, then 10 uL of 10x substrate and co-factors in Buffer A were added to the test well to make a final concentration of 1 uM NAM, 100 uM 5-Phospho-D-ribose 1-diphosphate (PRPP), and 2.5 mM Adenosine 5'-triphosphate (ATP). The reaction was allowed to proceed for 30 minutes at room temperature, then was quenched with the addition of 11 uL of a solution of formic acid and L-Cystathionine to make a final concentration of 1% formic acid and 10 uM L-Cystathionine.

Nicotinamide phosphoribosyltransferase, sequence (P43490 whole entry): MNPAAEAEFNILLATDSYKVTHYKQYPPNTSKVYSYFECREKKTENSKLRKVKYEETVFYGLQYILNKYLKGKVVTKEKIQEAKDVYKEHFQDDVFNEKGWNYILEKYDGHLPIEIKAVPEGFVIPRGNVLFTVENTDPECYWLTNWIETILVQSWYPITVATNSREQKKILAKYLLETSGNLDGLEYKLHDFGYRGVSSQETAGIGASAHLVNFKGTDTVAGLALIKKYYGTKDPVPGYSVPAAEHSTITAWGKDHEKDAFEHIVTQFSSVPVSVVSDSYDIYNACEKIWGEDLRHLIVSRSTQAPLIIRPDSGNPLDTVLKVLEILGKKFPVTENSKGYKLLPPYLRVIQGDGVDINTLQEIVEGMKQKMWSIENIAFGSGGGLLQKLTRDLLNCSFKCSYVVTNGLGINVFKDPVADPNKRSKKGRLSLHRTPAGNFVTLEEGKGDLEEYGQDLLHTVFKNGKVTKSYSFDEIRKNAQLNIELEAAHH

IC50: 2.6 nM
SMILES: Cn1ncc2ccc(S(=O)(=O)c3ccc(NC(=O)/C=C/c4cccnc4)cc3)cc21
